From paper PMC9558053, “Development of a novel high-throughput screen for the identification of new inhibitors of protein S-acylation” (The Journal of Biological Chemistry, 2022)

Target: T1, human zDHHC3 (Homo sapiens, UniProt Q9NYG2)
T1 construct: expressed in transfected cells; host or cells: HEK293T
T1 sequence (Q9NYG2 1-299): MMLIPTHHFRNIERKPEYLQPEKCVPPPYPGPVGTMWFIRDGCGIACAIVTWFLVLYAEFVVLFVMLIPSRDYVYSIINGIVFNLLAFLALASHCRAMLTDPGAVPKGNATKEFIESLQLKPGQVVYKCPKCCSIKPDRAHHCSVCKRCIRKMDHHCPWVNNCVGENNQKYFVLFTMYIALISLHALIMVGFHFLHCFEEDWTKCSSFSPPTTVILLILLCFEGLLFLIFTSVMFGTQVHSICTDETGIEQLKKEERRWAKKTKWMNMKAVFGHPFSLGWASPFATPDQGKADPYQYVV
Test: PSD95-mCHERRY S-acylation in HEK293T cells co-expressing zDHHC3
Type: cell-based
Conditions: 25 μM
Source text: PSD95 (postsynaptic density protein 95) is a major S-acylated protein that has a critical role in the maturation of excitatory neurons and in synaptic plasticity ([46], [47]). PSD95 can be S-acylated by zDHHC2, zDHHC3, zDHHC7, and zDHHC15 ([6]). […] We therefore tested the effects of TTZ-1 and TTZ-2 on the S-acylation of PSD95 mediated by zDHHC2, zDHHC3, zDHHC7, and zDHHC15. […] In contrast, zDHHC3 and zDHHC7 activities toward PSD95 were unaffected by TTZ-1 and TTZ-2, mirroring the data obtained with GFP-SNAP25 as a substrate.
Figure 9 Activity of TTZ-1 and TTZ-2 against PSD95 S-acylation mediated by human zDHHC2, zDHHC3, zDHHC7, and zDHHC15 expressed in mammalian cells. HEK293T cells were transfected with a plasmid encoding PSD95-mCHERRY together with either a control plasmid pEF-BOS-HA (pEF) or a plasmid encoding either HA-tagged human zDHHC2 (zD2), zDHHC3 (zD3), zDHHC7 (zD7), or zDHHC15 (zD15) for 24 h. Cells were then preincubated for 4 h with TTZ-1 or TTZ-2 (25 μM final) or DMSO control before metabolic labeling with 100 μM C16:0-azide for 4 h. Cells were lysed, and proteins having incorporated C16:0-azide were labeled by click chemistry with an alkyne-IR800 dye. […] The data were quantified, and the graphs below each set of membranes show mean ± SEM of normalized S-acylation of PSD95-mCHERRY (click signal/RFP signal). […]

Row | SMILES | PSD95-mCHERRY S-acylation by zDHHC3
1 | CCCCCCCOc1ccc(C(=O)Nc2cccc3c2OC(c2nnn[nH]2)CN3)cc1 (centres unmarked) [TTZ-1, N-(2-(1H-Tetrazol-5-yl)-3,4-dihydro-2H-benzo[b][1,4]oxazin-8-yl)-4-(heptyloxy)benzamide] | unaffected
2 | O=C(Nc1cccc2c1OC(c1nnn[nH]1)CN2)c1ccc(OCCCCc2ccccc2)cc1 (centres unmarked) [TTZ-2, N-(2-(1H-Tetrazol-5-yl)-3,4-dihydro-2H-benzo[b][1,4]oxazin-8-yl)-4-(4-phenylbutoxy)benzamide] | unaffected
